Experimental findings from patent US9656990B2, “Cathepsin cysteine protease inhibitors” (Merck Sharp & Dohme Corp., priority 2014, dated 2017) are described below.

Experiment [1] deals with human cathepsin K (UniProt P43236, Y175D/V274L, species not given). Nature of the experiment: Cathepsin K Assay. To be noted: IP from dose response curve; Z-Leu-Arg-AMC substrate, pH 5.5; read-out: hrbCat K (IP (nM)). The class given is biochemical.
The target of experiment [2] is T1, human cathepsin F (Homo sapiens, UniProt Q9UBX1).
T1 sequence (Q9UBX1 271-484): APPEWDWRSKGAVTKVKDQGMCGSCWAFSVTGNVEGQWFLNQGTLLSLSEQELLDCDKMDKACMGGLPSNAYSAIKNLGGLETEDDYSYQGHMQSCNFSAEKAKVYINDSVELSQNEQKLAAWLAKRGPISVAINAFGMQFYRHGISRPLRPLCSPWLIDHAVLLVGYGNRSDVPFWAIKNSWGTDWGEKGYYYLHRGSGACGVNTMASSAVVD
Nature of the experiment: Cathepsin F Assay. Format: biochemical. As to conditions: IP from dose response curve; Z-Phe-Arg-AMC substrate, pH 5.5; read-out: hCat F (IP (nM)). As to the method:
Serial dilutions (1/3) from 500 μM down to 0.025 μM of test compounds were prepared in dimethyl sulfoxide (DMSO). Then 0.5 μL of DMSO from each dilution were added to 18.75 μL of assay buffer (MES, 50 mM (pH 5.5); EDTA, 2.5 mM; DTT, 2.5 mM and 10% DMSO) containing human cathepsin F (10 nM) in assay buffer solution. The assay solutions were mixed for 5-10 seconds on a shaker plate and incubated for 15 minutes at room temperature. Z-Phe-Arg-AMC (8 μM) in 6.25 μL of assay buffer was added to the assay solutions. Hydrolysis of the coumarin leaving group (AMC) was followed by spectrofluorometry (Exλ=360 nm; Emλ=460 nm) for 20 minutes. Percent of inhibition were calculated by fitting experimental values to standard mathematical model for dose response curve.

Molecules are shown by their SMILES.

With `N#CC1(NC(=O)[C@@H]2CCCC[C@H]2c2nn(-c3ccc(C(O)C(F)(F)F)cc3)cc2-c2ccc(N3CCS(=O)(=O)CC3)cc2)CC1` (mixture of isomers) [Example 113, (1R,2R)-N-(1-cyanocyclopropyl)-2-(4-(4-(1,1-dioxidothiomorpholino)phen-yl)-1-(4-((S and R)-2,2,2-trifluoro-1-hydroxyethyl)phenyl)-1H-pyrazol-3-yl)cyclohexanecarboxamide], the IC50 in experiment [1] stood at 0.88 nM; in experiment [2], 360 nM.

`N#CC1(NC(=O)[C@@H]2CC3CC3C[C@H]2c2nn(-c3ccc(F)cc3)cc2-c2ccc(N3CCS(=O)(=O)CC3)cc2)CC1` (single isomer, unassigned) [Example 3, (1S or 1R,3R,4R,6R or 6S)—N-(1-Cyanocyclopropyl)-4-(4-(4-(1,1-dioxidothiomorpholino)phenyl)-1-(4-fluorophenyl)-1H-pyrazol-3-yl)bicyclo[4.1.0]heptane-3-carboxamide]: the results for the IC50 in experiment [1] and in experiment [2] were 0.84 nM and 333 nM, respectively.

With `N#CC1(NC(=O)[C@@H]2CC3CC3C[C@H]2c2nn(-c3ccc(F)cc3)cc2-c2ccc(N3CCS(=O)(=O)CC3)cc2)CC1` (single isomer, unassigned) [Example 4, (1R or 1S,3R,4R,6S or 6R)—N-(1-Cyanocyclopropyl)-4-(4-(4-(1,1-dioxidothiomorpholino)phenyl)-1-(4-fluorophenyl)-1H-pyrazol-3-yl)bicyclo[4.1.0]heptane-3-carboxamide], the values for the IC50 in experiment [1] and in experiment [2] were 0.93 nM and 258 nM, respectively.

In the case of `CC(C#N)NC(=O)[C@@H]1CCC(F)(F)C[C@H]1c1nn(-c2ccc(F)cn2)cc1-c1ccc(N2CCS(=N)(=O)CC2)cc1` (single isomer, unassigned) [Example 23, (1R,2R)-N-((S or R)-1-cyanoethyl)-4,4-difluoro-2-(1-(5-fluoropyridin-2-yl)-4-(4-(1-imino-1-oxidothiomorpholino)phenyl)-1H-pyrazol-3-yl)cyclohexanecarboxamide], the IC50 in experiment [1] is 1.07 nM; in experiment [2], 348 nM.

`CN=S1(=O)CCN(c2ccc(-c3cn(-c4ccc(F)cn4)nc3[C@@H]3CC(F)(F)CC[C@H]3C(=O)NC(C)C#N)cc2)CC1` (single isomer, unassigned) [Example 25, (1R,2R)-N-((S or R)-1-cyanoethyl)-4,4-difluoro-2-(1-(5-fluoropyridin-2-yl)-4-(4-(1-(methylimino)-1-oxidothiomorpholino)phenyl)-1H-pyrazol-3-yl)cyclohexanecarboxamide]: the IC50 in experiment [1] turned out to be 0.52 nM; in experiment [2], 431 nM.

Turning to `N#CC(CC(F)(F)F)NC(=O)[C@@H]1CC(F)(F)CC[C@H]1c1nn2ccccc2c1-c1ccc(N2CCS(=O)(=O)CC2)cc1` (single isomer, unassigned) [Example 74, (1R,2R)-N-((S or R)-1-cyano-3,3,3-trifluoropropyl)-2-(3-(4-(1,1-dioxidothiomorpholino)phen-yl)pyrazolo[1,5-a]pyridin-2-yl)-5,5-difluorocyclohexanecarbox-amide], the IC50 stood at 7.69 nM in experiment [1] and 252 nM in experiment [2].

For the compound `N#CC(CC(F)(F)F)NC(=O)[C@@H]1CC(F)(F)CC[C@H]1c1nn2ccccc2c1-c1ccc(N2CCS(=O)(=O)CC2)cc1` (single isomer, unassigned) [Example 75, (1R,2R)-N-((R or S)-1-cyano-3,3,3-trifluoropropyl)-2-(3-(4-(1,1-dioxidothiomorpholino)phen-yl)pyrazolo[1,5-a]pyridin-2-yl)-5,5-difluorocyclohexanecarbox-amide], the IC50 in experiment [1] turned out to be 0.99 nM; in experiment [2] it was 21 nM.

As for `CC1(C)CCC(C(=O)NC2(C#N)CC2)C(c2nn(-c3ccc(F)cc3)cc2-c2ccc(N3CCS(=O)(=O)CC3)cc2)C1` (single isomer, unassigned) [Example 116, (1R,2R or 1S,2S)-N-(1-cyanocyclopropyl)-2-(4-(4-(1,1-dioxidothiomorpholino)phen-yl)-1-(4-fluorophenyl)-1H-pyrazol-3-yl)-4,4-dimethylcyclohexanecarbox-amide], the IC50 stood at 328 nM in experiment [1] and 1200 nM in experiment [2].

For `CC1(C)CC[C@@H](c2nn(-c3ccc(F)cc3)cc2-c2ccc(N3CCS(=O)(=O)CC3)cc2)[C@H](C(=O)NC2(C#N)CC2)C1` (single isomer, unassigned) [Example 127, (1S,2S) or (1R,2R)-N-(1-cyanocyclopropyl)-2-(4-(4-(1,1-dioxidothiomorpholino)phen-yl)-1-(4-fluorophenyl)-1H-pyrazol-3-yl)-5,5-dimethylcyclohexanecarbox-amide], the IC50 in experiment [1] was 1.5 nM; in experiment [2] it was 632 nM.

Consider `N#CC1(NC(=O)[C@@H]2CC3CC3C[C@H]2c2nn(-c3ccc(F)cn3)cc2-c2ccc(N3CCS(=O)(=O)CC3)cc2)CC1` (single isomer, unassigned) [Example 152, (1S,3R,4R,6R) or (1R,3R,4R,6S)-N-(1-cyanocyclopropyl)-4-(4-(4-(1,1-dioxidothiomorpholino)phen-yl)-1-(5-fluoropyridin-2-yl)-1H-pyrazol-3-yl)bicyclo[4.1.0]heptane-3-carboxamide], for which the IC50 in experiment [1] came out at 1.06 nM; in experiment [2] it was 338 nM.

`N#CC1(NC(=O)[C@@H]2CC3CC3C[C@H]2c2nn(-c3ccc(F)cn3)cc2-c2ccc(N3CCS(=O)(=O)CC3)cc2)CC1` (single isomer, unassigned) [Example 153, (1R,3R,4R,6S) or (1S,3R,4R,6R)-N-(1-cyanocyclopropyl)-4-(4-(4-(1,1-dioxidothiomorpholino)phen-yl)-1-(5-fluoropyridin-2-yl)-1H-pyrazol-3-yl)bicyclo[4.1.0]heptane-3-carboxamide]: the IC50 in experiment [1] stood at 0.66 nM; in experiment [2], 265 nM.

As to `N#CC1(NC(=O)[C@@H]2CC3CC3C[C@H]2c2nn(-c3ccc(Cl)cn3)cc2-c2ccc(N3CCS(=O)(=O)CC3)cc2)CC1` (single isomer, unassigned) [Example 154, (1R,3R,4R,6S) or (1S,3R,4R,6R)-4-(1-(5-chloropyridin-2-yl)-4-(4-(1,1-dioxidothiomorpholino)phen-yl)-1H-pyrazol-3-yl)-N-(1-cyanocyclopropyl)bicyclo [4.1.0]heptane-3-carboxamide], the IC50 in experiment [1] was 0.74 nM; in experiment [2] it was 279 nM.

With `N#CC1(NC(=O)[C@@H]2CC3CC3C[C@H]2c2nn(-c3ccc(Cl)cn3)cc2-c2ccc(N3CCS(=O)(=O)CC3)cc2)CC1` (single isomer, unassigned) [Example 155], the IC50 in experiment [1] was found to be 0.56 nM; in experiment [2] it was 197 nM.

In the case of `N#CC1CCN(c2ccc(-c3cn(-c4ccc(F)cc4)nc3[C@@H]3CCCC[C@H]3C(=O)NC3(C#N)CC3)cc2)CC1` [Example 1, (1R,2R)—N-(1-Cyanocyclopropyl)-2-(4-(4-(4-cyanopiperidin-1-yl)phenyl)-1-(4-fluorophenyl)-1H-pyrazol-3-yl)cyclohexanecarboxamide], the IC50 turned out to be 2.72 nM in experiment [1] and 698 nM in experiment [2].

`COc1cccc(-n2cc(-c3ccc(N4CCS(=O)(=O)CC4)cc3)c([C@@H]3CCCC[C@H]3C(=O)NC3(C#N)CC3)n2)c1` [Example 2, (1R,2R)—N-(1-Cyanocyclopropyl)-2-(4-(4-(1,1-dioxidothiomorpholino)phenyl)-1-(3-methoxyphenyl)-1H-pyrazol-3-yl)cyclohexanecarboxamide]: the IC50 in experiment [1] amounted to 0.99 nM; in experiment [2], 494 nM.

In the case of `N#CC1(NC(=O)[C@@H]2CCCC[C@H]2c2nn(-c3ccc(F)cn3)cc2-c2ccc(N3CCS(=N)(=O)CC3)cc2)CC1` [Example 5, (1R,2R)—N-(1-Cyanocyclopropyl)-2-(1-(5-fluoropyridin-2-yl)-4-(4-(1-imino-1-oxidothiomorpholino)phenyl)-1H-pyrazol-3-yl)cyclohexanecarboxamide], the IC50 in experiment [1] amounted to 1.53 nM; in experiment [2], 877 nM.

With `CC(C)OC(=O)N1CC(c2ccc(-c3cn(-c4ccc(F)cc4)nc3[C@@H]3CCCC[C@H]3C(=O)NC3(C#N)CC3)cc2)C1` [Example 6, Isopropyl 3-(4-(3-((1R,2R)-2-((1-cyanocyclopropyl)carbamoyl)cyclohexyl)-1-(4-fluorophenyl)-1H-pyrazol-4-yl)phenyl)azetidine-1-carboxylate], the IC50 was 0.53 nM in experiment [1] and 49 nM in experiment [2].

On to `Cc1ccc(-n2cc(-c3ccc(N4CCS(=O)(=O)CC4)cc3)c([C@@H]3CCCC[C@H]3C(=O)NC3(C#N)CC3)n2)nn1` [Example 7, (1R,2R)—N-(1-Cyanocyclopropyl)-2-(4-(4-(1,1-dioxidothiomorpholino)phenyl)-1-(6-methylpyridazin-3-yl)-1H-pyrazol-3-yl)cyclohexanecarboxamide], for which the IC50 in experiment [1] is 1.54 nM; in experiment [2], 517 nM.

`N#CC1(NC(=O)[C@@H]2CCCC[C@H]2c2nn(-c3cncc(Cl)c3)cc2-c2ccc(N3CCS(=O)(=O)CC3)cc2)CC1` [Example 8, (1R,2R)-2-(1-(5-Chloropyridin-3-yl)-4-(4-(1,1-dioxidothiomorpholino)phenyl)-1H-pyrazol-3-yl)-N-(1-cyanocyclopropyl)cyclohexanecarboxamide]: the IC50 in experiment [1] turned out to be 0.75 nM; in experiment [2], 215 nM.
